The values that follow come from patent publication US20100311714A1, “1H-IMIDAZO[4,5-c]QUINOLINONE COMPOUNDS” (priority 2009, published 2010).

In one test the target is T1, mTOR (Homo sapiens, UniProt P42345).
T1 construct: purchased Invitrogen Corporation (Carlsbad/Calif., USA) PV4753
The experiment in a line: Biochemical assay for m-TOR by TR-FRET. The settings on record: read-out: EPK_mTOR/IC50. As for the experimental part:
Biochemical Assay for m-TOR by TR-FRET.
Assay components are purchased from Invitrogen Corporation (Carlsbad/Calif., USA): GFP-4EBP1 (Cat. No. PV4759), Tb3+-α-p4EBP1 [pThr46] Antibody (Cat. No. PV4757), proprietary TR-FRET dilution buffer (Cat. No. PV3574), mTOR protein (Cat. No. PV4753).
50 nL of compound dilutions (final concentration of 10, 3.0, 1.0, 0.3, 0.1, 0.03, 0.01 and 0.003 μM) are dispensed onto black 384-well low volume non-binding polystyrene (Cat. No. NBS#3676, Corning, Lowell/Mass., USA). Then 5 μL of ATP (8 μM final concentration) and GFP-4EBP1 (400 nM final concentration) with 5 μL mTOR proteins (0.5 nM final concentration) are incubated at rt. The standard reaction buffer for the TR-FRET mTOR assay contained 50 mM HEPES pH 7.5, 10 mM MnCl2, 50 mM NaCl, 1 mM EGTA, 1 mM DTT. Reactions were stopped with 10 μL of a mixture of EDTA containing the Tb3+-α-p4EBP1[pT46] detection Ab (0.5 nM) in TR-FRET dilution buffer (proprietary to IVG). Plates are read 15 mins later in a Synergy2 reader using an integration time of 0.2 seconds and a delay of 0.1 seconds. Control for the 100% inhibition of the kinase reaction is performed by replacing the mTOR kinase by the standard reaction buffer. The control for the 0% inhibition is given by the solvent vehicle of the compounds (90% DMSO in H2O). A standard compound is used as a reference compound and included in all assay plates in the form of 16 dilution points in duplicate.
For orientation: In TR-FRET formats the signal depends on donor and acceptor labels being close together.

The target of the next test is T2, PI3K delta (Homo sapiens, UniProt O00329).
T2 construct: for the full-length p110-d subunit are generated and fused by overlapping PCR; His tag (C); made in house; host or cells: baculovirus BV1060; Tn5 (Trichoplusia ni) or TiniPro insect cells
The experiment in a line: PI3K delta kinase assay (Kinase-Glo luminescence). Type of test: biochemical. The following applies: read-out: EPK_PI3Kdelta/IC50. The method, then: (§1) In a more preferred assay, the kinase reaction is performed in a final volume of 10 μL per well of a low volume non binding CORNING, 384 well black plate (Cat. No. #3676). The final concentrations of ATP and phosphatidyl inositol (PI) in the assay are 1 μM and 10 μg/mL respectively. The reaction is started by the addition of ATP.
(§2) The components of the assay are added per well as follows:
(§3) 50 nL test compounds in 90% DMSO per well, in columns 1-20, 8 concentrations (⅓ and 1/3.33 serial dilution step) in single. • Low control: […] of 90% DMSO in half the wells of columns 23-24 (0.45% in final). • High control: 50 nL of reference compound (e.g. compound of Example 7 in WO 2006/122806) in the other half of columns 23-24 (2.5 μM in final). • Standard: 50 nL of reference compound as just mentioned diluted as the test compounds in columns 21-22 • 20 mL ‘buffer’ are prepared per assay: • 200 μL of 1M TRIS HCl pH7.5 (10 mM in final) • 60 μL of 1M MgCl2 (3 mM in final) • 500 μL of 2M NaCl (50 mM in final) • 100 μL of 10% CHAPS (0.05% in final) • 200 μL of 100 mM DTT (1 mM in final) • 18.94 mL of nanopure water • 10 mL ‘PI’ are prepared per assay: • 200 μL of 1 mg/ml L-alpha-Phosphatidylinositol (Liver Bovine, Avanti Polar Lipids Cat. No. 840042C MW=909.12) prepared in 3% OctylGlucoside (10 μg/ml in final) • 9.8 mL of ‘buffer’ • 10 mL ‘ATP’ are prepared per assay: • 6.7 μL of 3 mM stock of ATP giving a final concentration of 1 μM per well • 10 mL of ‘buffer’ • 2.5 mL of each PI3K construct are prepared per assay in ‘PI’ with the following final concentration: • 10 nM PI3K alfa EMV B1075 • 25 nM beta EMV BV949 • 10 nM delta EMV BV1060 • 150 nM gamma EMV BV950 • 5 μL of ‘PI/PI3K’ are added per well. • 5 μl ‘ATP’ are added per well to start the reaction. • The plates are then incubated at room temperature for 60 minutes (alfa, beta, delta) or 120 minutes (gamma). • The reaction is terminated by the addition of 10 μL Kinase-Glo (Promega Cat. No. #6714). • The assay plates are read after 10 minutes in Synergy 2 reader (BioTek, Vermont USA) with an integration time of 100 milliseconds and sensitivity set to 191. • Output: The High control is around 60′000 counts and the Low control is 30′000 or lower • This luminescence assay gives a useful Z′ ratio between 0.4 and 0.7
PI3Kδ BV-1060 p85(iSH2)-Gly Linker-p110d(Full-Length)-C-Term His Tag
PI3K delta is purified in three chromatographic steps: immobilized metal affinity chromatography on a Ni Sepharose resin (GE Healthcare), gel filtration utilizing a Superdex 200 26/60 column (GE Healthcare), and finally a anion exchange step on a Q-HP column (GE Healthcare). All buffers are chilled to 4° C. and lysis is performed chilled on ice. Column fractionation is performed rapidly at room temperature. Typically frozen insect cells are lysed in a hypertonic lysis buffer and applied to a prepared IMAC column. The resin is washed with 3-5 column volumes of lysis buffer, followed by 3-5 column volumes wash buffer containing 45 mM imidazole, and the target protein is then eluted with a buffer containing 250 mM imidazole. Fractions are analyzed by Coomassie stained SDS-PAGE gels, and fractions containing the target protein are pooled and applied to a prepared GFC column. Fractions from the GFC column are analyzed by Coomassie stained SDS-PAGE gels, and fractions containing the target protein are pooled. The pool from the GFC column is diluted into a low salt buffer and applied to a prepared Q-HP column. The column is washed with low salt buffer until a stable A280 baseline absorbance is achieved, and eluted using a 20 column volume gradient from 0 mM NaCl to 500 mM NaCl. Again, fractions from the Q-HP column are analyzed by Coomassie stained SDS-PAGE gels, and fractions containing the target protein are pooled. The final pool is dialyzed into a storage buffer containing 50% glycerol and stored at −20° C. The final pool is assayed for activity in the phosphoinostitol kinase assay. […]
(In general: Kinase-Glo reads ATP consumption through a luciferase reaction.)

For another test, the target named is T3, PI3K beta (Homo sapiens, UniProt P42338).
T3 construct: for the full-length p110-b subunit are generated and fused by overlapping PCR; His tag (C); made in house; host or cells: baculovirus BV949; Tn5 (Trichoplusia ni) or TiniPro insect cells
Kind of test: PI3K beta kinase assay (Kinase-Glo luminescence). The format is biochemical. The following applies: read-out: EPK_PI3Kbeta/IC50. As for the experimental part: as §1, §2, §3
PI3Kβ BV-949 p85(iSH2)-Gly linker-r 110b(full-length)-C-term His Tag
PI3K beta is purified in two chromatographic steps: immobilized metal affinity chromatography (IMAC) on a Ni Sepharose resin (GE Healthcare) and gel filtration (GFC) utilizing a Superdex 200 26/60 column (GE Healthcare). All buffers are chilled to 4° C. and lysis is performed chilled on ice. Column fractionation is performed rapidly at room temperature.
(§4) IC50 is determined by a four parameter curve fitting routine that comes along with “excel fit”. A 4 Parameter logistic equation is used to calculate IC50 values (IDBS XLfit) of the percentage inhibition of each compound at 8 concentrations (usually 10, 3.0, 1.0, 0.3, 0.1, 0.030, 0.010 and 0.003 μM). Alternatively, IC50 values are calculated using idbsXLfit model 204, which is a 4 parameter logistic model.

For a further test, the target named is T4, PI3K alfa (Homo sapiens, UniProt P42336).
T4 construct: His tag (C); made in house; host or cells: baculovirus BV1075; Tn5 (Trichoplusia ni) or TiniPro insect cells
The experiment in a line: PI3K alpha kinase assay (Kinase-Glo luminescence). The format is biochemical. The following applies: read-out: EPK_PI3Kalfa/IC50. The method, then:
as §1, §2, §3
Two different constructs, BV 1052 and BV 1075, are used to generate the PI3 Kinase α proteins for compound screening.
PI3K alpha is purified in three chromatographic steps: immobilized metal affinity chromatography on a Ni Sepharose resin (GE Healthcare, belonging to General Electric Company, Fairfield, Conn., USA), gel filtration utilizing a Superdex 200 26/60 column (GE Healthcare), and finally a cation exchange step on a SP-XL column (GE Healthcare). All buffers are chilled to 4° C. and lysis is performed chilled on ice. Column fractionation is performed rapidly at room temperature.
as §4

pIC50: −log10 of the molar value.

T2 sequence (O00329 with tags, fused parts or gaps limits assumed): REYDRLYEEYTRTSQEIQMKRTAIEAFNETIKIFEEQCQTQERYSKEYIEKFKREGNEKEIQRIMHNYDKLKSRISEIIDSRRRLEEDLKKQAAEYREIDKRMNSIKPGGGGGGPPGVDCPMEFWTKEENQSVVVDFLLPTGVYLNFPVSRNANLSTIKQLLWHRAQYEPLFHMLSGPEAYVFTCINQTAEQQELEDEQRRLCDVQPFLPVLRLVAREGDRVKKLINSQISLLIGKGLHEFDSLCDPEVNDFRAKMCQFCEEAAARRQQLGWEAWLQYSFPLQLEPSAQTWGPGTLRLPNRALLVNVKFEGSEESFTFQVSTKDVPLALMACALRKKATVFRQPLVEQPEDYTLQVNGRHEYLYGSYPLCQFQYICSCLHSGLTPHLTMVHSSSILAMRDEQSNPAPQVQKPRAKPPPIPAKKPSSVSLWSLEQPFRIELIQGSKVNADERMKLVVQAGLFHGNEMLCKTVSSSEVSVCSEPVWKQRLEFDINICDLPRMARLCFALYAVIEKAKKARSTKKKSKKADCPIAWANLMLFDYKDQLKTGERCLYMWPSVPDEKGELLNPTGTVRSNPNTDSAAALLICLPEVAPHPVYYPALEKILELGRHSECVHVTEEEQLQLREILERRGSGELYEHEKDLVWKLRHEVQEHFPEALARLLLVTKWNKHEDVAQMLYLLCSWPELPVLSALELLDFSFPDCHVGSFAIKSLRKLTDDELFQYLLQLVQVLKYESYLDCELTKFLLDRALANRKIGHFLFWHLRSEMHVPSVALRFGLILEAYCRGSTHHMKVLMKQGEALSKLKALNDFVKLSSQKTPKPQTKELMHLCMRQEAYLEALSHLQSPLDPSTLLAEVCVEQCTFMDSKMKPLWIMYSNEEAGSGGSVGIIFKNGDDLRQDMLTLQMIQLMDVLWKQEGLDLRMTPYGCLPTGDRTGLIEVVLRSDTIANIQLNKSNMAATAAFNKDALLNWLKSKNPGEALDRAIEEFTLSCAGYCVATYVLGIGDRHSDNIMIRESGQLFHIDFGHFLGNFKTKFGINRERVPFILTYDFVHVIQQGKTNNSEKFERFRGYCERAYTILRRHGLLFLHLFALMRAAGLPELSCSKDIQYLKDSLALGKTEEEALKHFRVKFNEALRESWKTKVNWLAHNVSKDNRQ
T1 sequence (P42345 1360-2549 limits assumed): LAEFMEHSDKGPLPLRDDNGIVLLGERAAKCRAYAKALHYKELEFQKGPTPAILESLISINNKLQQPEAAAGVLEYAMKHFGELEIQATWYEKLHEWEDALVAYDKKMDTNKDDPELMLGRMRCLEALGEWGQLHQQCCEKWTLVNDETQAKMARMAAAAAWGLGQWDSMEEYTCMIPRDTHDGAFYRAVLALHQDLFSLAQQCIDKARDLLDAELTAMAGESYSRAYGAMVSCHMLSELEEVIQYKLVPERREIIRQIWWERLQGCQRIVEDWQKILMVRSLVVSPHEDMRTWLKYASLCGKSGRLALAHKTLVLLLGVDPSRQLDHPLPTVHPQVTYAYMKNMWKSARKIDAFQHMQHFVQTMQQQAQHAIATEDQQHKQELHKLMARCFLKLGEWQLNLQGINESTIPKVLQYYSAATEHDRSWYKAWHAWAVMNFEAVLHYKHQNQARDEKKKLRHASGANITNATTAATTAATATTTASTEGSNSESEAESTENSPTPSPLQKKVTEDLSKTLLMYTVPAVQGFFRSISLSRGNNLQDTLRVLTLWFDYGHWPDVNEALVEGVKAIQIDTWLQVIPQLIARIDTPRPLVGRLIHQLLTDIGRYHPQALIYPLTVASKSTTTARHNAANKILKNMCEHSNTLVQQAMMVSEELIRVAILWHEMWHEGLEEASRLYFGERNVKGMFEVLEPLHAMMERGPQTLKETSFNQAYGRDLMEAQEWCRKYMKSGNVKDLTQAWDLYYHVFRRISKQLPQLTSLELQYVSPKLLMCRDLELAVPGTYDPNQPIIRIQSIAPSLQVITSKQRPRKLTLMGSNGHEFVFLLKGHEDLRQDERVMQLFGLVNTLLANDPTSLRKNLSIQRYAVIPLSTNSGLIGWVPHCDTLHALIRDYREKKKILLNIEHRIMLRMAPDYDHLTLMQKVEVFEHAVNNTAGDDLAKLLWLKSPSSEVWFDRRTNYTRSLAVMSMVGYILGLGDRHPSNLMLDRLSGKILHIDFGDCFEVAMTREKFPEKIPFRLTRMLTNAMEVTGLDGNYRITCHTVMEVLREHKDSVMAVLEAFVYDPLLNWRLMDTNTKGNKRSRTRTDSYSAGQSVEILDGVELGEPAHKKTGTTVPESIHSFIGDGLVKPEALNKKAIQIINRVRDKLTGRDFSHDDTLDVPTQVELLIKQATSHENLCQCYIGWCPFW
T3 sequence (P42338 with tags, fused parts or gaps limits assumed): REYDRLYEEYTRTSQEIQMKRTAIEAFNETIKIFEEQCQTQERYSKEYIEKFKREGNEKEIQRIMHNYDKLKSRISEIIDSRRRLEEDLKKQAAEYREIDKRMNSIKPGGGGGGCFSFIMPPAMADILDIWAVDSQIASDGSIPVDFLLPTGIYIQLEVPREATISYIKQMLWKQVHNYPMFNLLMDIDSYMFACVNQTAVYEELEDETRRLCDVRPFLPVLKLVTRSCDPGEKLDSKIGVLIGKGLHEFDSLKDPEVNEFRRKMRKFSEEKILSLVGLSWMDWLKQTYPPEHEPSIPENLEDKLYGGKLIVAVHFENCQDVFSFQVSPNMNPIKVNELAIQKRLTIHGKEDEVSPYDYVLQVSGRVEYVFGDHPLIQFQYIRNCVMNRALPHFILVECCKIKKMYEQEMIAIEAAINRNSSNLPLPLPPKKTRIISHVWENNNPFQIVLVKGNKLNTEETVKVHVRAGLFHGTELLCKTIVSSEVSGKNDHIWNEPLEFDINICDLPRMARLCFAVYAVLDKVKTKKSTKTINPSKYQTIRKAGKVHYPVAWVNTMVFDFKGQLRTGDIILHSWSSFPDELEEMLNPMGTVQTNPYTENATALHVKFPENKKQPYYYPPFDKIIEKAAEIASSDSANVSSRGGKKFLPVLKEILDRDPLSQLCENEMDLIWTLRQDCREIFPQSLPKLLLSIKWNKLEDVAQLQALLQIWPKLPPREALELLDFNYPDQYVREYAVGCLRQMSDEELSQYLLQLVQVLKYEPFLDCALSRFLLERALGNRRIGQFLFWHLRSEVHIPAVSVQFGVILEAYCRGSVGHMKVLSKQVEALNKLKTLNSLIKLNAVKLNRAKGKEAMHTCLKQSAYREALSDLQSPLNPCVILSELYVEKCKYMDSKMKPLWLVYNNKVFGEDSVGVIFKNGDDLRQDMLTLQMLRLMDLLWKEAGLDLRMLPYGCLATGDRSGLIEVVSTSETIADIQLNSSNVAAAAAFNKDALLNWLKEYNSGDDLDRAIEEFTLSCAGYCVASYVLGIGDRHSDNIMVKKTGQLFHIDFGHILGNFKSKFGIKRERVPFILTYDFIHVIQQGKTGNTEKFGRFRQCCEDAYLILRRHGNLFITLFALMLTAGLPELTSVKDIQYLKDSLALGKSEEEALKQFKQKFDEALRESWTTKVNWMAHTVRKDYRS
T4 sequence (P42336 with tags, fused parts or gaps limits assumed): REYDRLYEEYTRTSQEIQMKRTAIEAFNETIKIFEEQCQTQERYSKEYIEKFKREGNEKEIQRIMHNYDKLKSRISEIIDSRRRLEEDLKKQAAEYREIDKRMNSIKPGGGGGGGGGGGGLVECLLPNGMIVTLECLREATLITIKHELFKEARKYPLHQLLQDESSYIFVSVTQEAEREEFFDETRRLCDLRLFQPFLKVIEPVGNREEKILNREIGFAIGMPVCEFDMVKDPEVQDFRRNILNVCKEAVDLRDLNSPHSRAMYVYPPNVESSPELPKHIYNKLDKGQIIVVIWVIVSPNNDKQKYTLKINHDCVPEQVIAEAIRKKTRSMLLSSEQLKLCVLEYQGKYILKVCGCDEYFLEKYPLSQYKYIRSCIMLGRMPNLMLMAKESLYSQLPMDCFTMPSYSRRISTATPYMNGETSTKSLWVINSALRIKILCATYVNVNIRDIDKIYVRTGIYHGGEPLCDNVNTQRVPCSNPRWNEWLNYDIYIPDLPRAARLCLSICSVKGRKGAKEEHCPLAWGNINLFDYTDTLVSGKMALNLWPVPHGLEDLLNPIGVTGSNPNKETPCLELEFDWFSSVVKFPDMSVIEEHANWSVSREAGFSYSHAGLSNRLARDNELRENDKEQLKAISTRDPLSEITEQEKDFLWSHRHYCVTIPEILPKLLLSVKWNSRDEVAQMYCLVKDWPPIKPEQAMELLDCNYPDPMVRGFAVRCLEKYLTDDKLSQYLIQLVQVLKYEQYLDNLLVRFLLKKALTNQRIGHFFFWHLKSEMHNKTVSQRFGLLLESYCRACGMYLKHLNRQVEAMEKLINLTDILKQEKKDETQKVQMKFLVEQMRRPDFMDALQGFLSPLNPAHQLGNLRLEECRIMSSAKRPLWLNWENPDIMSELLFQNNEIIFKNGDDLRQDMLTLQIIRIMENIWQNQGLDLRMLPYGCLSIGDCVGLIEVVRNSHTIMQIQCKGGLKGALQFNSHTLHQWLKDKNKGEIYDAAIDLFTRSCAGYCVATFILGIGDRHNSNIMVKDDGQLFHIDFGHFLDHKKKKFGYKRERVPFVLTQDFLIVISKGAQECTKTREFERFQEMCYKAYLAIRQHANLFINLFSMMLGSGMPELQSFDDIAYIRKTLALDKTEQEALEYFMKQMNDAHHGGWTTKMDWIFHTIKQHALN

Regarding `CCNc1ncc(-c2ccc3ncc4c(c3c2)n(-c2ccc(N3CC[C@@H](O)C3)nc2C)c(=O)n4C)cn1` [Example 34.3, 8-(2-Ethylamino-pyrimidin-5-yl)-1-[6-((R)-3-hydroxy-pyrrolidin-1-yl)-2-methyl-pyridin-3-yl]-3-methyl-1,3-dihydro-imidazo[4,5-c]quinolin-2-one], the pIC50 was 7.96 at mTOR, 7.74 on PI3K delta, 6.38 at PI3K beta and 7.35 at PI3K alfa.

Turning to `COc1cc(-c2ccc3ncc4c(c3c2)n(-c2ccc(N3CC(F)(F)C(F)(F)C3)nc2C)c(=O)n4C)cnc1CO` [Example 35.3, 8-(6-Hydroxymethyl-5-methoxy-pyridin-3-yl)-3-methyl-1-[2-methyl-6-(3,3,4,4-tetrafluoro-pyrrolidin-1-yl)-pyridin-3-yl]-1,3-dihydro-imidazo[4,5-c]quinolin-2-one], the pIC50 at mTOR was 6.76; at PI3K delta it was 8.00; at PI3K beta, 7.31; on PI3K alfa it was 7.85.

`Cc1nc(N2CC(F)(F)C(F)(F)C2)ccc1-n1c(=O)n(C)c2cnc3ccc(-c4cnc(N)c(CO)c4)cc3c21` [Example 35.4, 8-(6-Amino-5-hydroxymethyl-pyridin-3-yl)-3-methyl-1-[2-methyl-6-(3,3,4,4-tetrafluoro-pyrrolidin-1-yl)-pyridin-3-yl]-1,3-dihydro-imidazo[4,5-c]quinolin-2-one]: the pIC50 on mTOR was 7.18; at PI3K delta it was 7.68; at PI3K beta it was 6.68; at PI3K alfa, 7.41.
